Data reported in article PMC5642509, “A small-molecule inhibitor targeting the AURKC–IκBα interaction decreases transformed growth of MDA-MB-231 breast cancer cells” (Oncotarget, 2017).

T1: Aurora C (AURKC) (Homo sapiens, UniProt Q9UQB9)
T1 construct: recombinant active AURKC
T1 sequence (Q9UQB9 1-309): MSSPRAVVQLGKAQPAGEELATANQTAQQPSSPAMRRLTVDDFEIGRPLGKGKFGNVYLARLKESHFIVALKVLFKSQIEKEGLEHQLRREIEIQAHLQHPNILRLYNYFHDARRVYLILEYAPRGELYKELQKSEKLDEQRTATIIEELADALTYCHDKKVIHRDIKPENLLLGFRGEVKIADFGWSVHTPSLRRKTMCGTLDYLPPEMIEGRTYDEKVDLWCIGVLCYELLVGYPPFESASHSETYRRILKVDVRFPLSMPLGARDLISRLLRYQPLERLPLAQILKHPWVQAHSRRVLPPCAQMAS

T2: pBIND-AURKC (human, UniProt Q9UQB9 1-309)
T2 construct: Aurora C kinase (AURKC); also called pM-BD-pAURKC; source: mammalian two-hybrid fusion, transfected cells
T2 sequence (looked up): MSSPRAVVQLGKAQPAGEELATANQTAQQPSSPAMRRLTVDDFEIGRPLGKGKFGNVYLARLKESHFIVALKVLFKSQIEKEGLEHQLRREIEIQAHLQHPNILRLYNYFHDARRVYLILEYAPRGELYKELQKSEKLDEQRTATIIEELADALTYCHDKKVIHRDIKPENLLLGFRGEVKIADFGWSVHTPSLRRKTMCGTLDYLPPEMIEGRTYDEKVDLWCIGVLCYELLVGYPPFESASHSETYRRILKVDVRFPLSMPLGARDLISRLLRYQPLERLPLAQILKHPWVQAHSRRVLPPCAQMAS


Legend:
Aurora C (AURKC) = molecular target: T1, Aurora C (AURKC); test: ATP-competition kinase assay, active AURKC and purified IκBα, pS32 immunoblot (GSK1070916 […], various ATP); format: biochemical
pBIND-AURKC = molecular target: T2, pBIND-AURKC; test: two-hybrid; mammalian two-hybrid: pBIND-AURKC, pACT-IκBα and pG5-luciferase transfected in equal amounts; luciferase read-out normalised against the control; details: partners not purified

| fold luciferase activity over the Bind-AURKC vector (pBIND-AURKC) [fold] | Molecule | ATP-competition kinase assay, active AURKC and purified IκBα, pS32 immunoblot (G) (Aurora C (AURKC)) |
| --- | --- | --- |
|  | CCn1cc(-c2ccnc3[nH]c(-c4cccc(CN(C)C)c4)cc23)c(-c2ccc(NC(=O)N(C)C)cc2)n1 [GSK1070916] | the inhibitory activity of GSK1070916 was inversely proportional to the concentration of ATP (Figure 6E and 6F) |
| ~2.7 | pACT-IκBα (natural protein, human, UniProt P25963 1-317, looked up, IκBα; also called pVP-IκBα; source: mammalian two-hybrid fusion, transfected cells) MFQAAERPQEWAMEGPRDGLKKERLLDDRHDSGLDSMKDEEYEQMVKELQEIRLEPQEVPRGSEPWKQQLTEDGDSFLHLAIIHEEKALTMEVIRQVKGDLAFLNFQNNLQQTPLHLAVITNQPEIAEALLGAGCDPELRDFRGNTPLHLACEQGCLASVGVLTQSCTTPHLHSILKATNYNGHTCLHLASIHGYLGIVELLVSLGADVNAQEPCNGRTALHLAVDLQNPDLVSLLLKCGADVNRVTYQGYSPYQLTWGRPSTRIQQQLGQLTLENLQMLPESEDEESYDTESEFTEFTEDELPYDDCVFGGQRLTL |  |
